Assay results as given in patent US20240059691A1 (KALVISTA PHARMACEUTICALS LIMITED, priority 2020, published 2024).

Columns and labels:
Assay type in all cases: biochemical
[1] = target: FXIa (Homo sapiens (Human), UniProt P03951); assay: Determination of related protease inhibition: FXIa (fixed substrate concentration of 100 μM); conditions: 25° C.
Protocol: Determination of Related Protease Inhibition
In vitro inhibition of related proteases was determined using an ([…] assay based on standard literature methods (see e.g. Shori et al., Biochem. Pharmacol., 1992, 43, 1209; Bouckaert et al., European Journal of Medicinal Chemistry 110 (2016) 181). Human serine protease enzymes Plasma Kallikrein, KLK1, FXa, Plasmin, Thrombin and Trypsin were assayed for enzymatic activity using an appropriate fluorogenic substrate at Km concentration, FXIa at fixed substrate concentration of 100 μM, and various concentrations of the test compound. Protease activity was measured by monitoring the accumulation of liberated fluorescence from the substrate over […]. The linear rate of fluorescence increase per minute was expressed as percentage (%) activity. IC50 values were calculated as the concentration of inhibitor giving 50% inhibition of the uninhibited enzyme activity (100%).

[2] = target: Thrombin (Homo sapiens (Human), UniProt P00734); assay: Determination of related protease inhibition: Thrombin (fluorogenic substrate at Km); conditions: 25° C.
Method in brief: (§1)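 IC50 derived as the concentration halving uninhibited activity, from linear fluorescence increase per minute monitored 5 min at 25 °C. Each human protease was run with its fluorogenic substrate at Km concentration across a range of test compound concentrations.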

[3] = target: FXa (Homo sapiens (Human), UniProt P00742); assay: Determination of related protease inhibition: FXa (fluorogenic substrate at Km); conditions: 25° C.
Method in brief: as §1

[4] = target: Human Factor XIIa (Homo sapiens (Human), UniProt P00748); assay: Determination of FXIIa inhibition (fluorogenic substrate H-DPro-Phe-Arg-AFC, IC50 assay); conditions: substrate H-DPro-Phe-Arg-AFC at Km, 25° C.; class scale A-G
Method in brief: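 IC50 derived from % remaining activity, taken as the linear fluorescence rate over a 5 min read at 25° C. Substrate H-DPro-Phe-Arg-AFC was used at its Km (Michaelis-Menten) with human FXIIa and serial compound dilutions, 25° C.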

[5] = target: Plasma Kallikrein (Homo sapiens (Human), UniProt P03952); assay: Determination of related protease inhibition: Plasma Kallikrein (fluorogenic substrate at Km); conditions: 25° C., read-out: IC50 (human PKal)
Method in brief: as §1

[6] = target: KLK1 (Homo sapiens (Human), UniProt P06870); assay: Determination of related protease inhibition: KLK1 (fluorogenic substrate at Km); conditions: 25° C.
Method in brief: as §1

Sequence of KLK1 (P06870 25-262): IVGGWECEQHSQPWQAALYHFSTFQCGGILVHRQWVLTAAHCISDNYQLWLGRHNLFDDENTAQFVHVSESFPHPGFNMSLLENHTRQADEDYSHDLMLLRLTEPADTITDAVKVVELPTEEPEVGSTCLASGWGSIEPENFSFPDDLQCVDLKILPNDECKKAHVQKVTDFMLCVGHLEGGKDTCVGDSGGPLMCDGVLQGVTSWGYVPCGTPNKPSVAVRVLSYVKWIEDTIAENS
Sequence of FXIa (P03951 388-625): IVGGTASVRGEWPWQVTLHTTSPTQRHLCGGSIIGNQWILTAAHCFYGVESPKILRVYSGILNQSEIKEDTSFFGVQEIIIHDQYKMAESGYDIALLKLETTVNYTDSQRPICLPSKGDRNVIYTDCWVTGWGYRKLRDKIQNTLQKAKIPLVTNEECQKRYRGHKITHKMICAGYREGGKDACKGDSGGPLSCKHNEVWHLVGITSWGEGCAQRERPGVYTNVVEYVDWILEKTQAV
Sequence of FXIa (P03951 19-387 partner): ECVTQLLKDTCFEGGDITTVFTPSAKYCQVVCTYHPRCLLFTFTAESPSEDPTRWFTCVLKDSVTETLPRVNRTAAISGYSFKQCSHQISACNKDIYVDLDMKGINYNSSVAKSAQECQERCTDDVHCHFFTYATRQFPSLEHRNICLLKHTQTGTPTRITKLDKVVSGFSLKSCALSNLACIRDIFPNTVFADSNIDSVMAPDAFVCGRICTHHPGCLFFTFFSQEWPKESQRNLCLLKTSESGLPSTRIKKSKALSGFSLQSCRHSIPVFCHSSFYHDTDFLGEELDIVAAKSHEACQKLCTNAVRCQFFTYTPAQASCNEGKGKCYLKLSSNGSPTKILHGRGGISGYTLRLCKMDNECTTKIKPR
Sequence of Plasma Kallikrein (P03952 391-638): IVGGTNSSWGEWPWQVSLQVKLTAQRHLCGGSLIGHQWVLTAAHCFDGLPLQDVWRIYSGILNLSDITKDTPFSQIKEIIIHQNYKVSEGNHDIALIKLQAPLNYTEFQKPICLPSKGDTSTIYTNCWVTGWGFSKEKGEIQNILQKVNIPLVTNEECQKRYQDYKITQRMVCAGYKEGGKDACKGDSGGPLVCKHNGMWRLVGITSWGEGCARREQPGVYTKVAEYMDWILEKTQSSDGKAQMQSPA
Sequence of Plasma Kallikrein (P03952 20-390 partner): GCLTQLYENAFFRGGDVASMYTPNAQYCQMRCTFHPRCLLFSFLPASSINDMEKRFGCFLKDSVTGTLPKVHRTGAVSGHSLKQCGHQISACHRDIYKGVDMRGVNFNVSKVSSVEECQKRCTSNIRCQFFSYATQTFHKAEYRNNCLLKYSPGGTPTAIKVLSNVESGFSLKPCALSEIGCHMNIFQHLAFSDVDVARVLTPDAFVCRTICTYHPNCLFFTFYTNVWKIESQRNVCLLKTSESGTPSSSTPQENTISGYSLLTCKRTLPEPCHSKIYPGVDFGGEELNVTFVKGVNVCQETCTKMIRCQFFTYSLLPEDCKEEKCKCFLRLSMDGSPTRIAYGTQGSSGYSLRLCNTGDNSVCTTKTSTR
Sequence of FXa (P00742 235-488): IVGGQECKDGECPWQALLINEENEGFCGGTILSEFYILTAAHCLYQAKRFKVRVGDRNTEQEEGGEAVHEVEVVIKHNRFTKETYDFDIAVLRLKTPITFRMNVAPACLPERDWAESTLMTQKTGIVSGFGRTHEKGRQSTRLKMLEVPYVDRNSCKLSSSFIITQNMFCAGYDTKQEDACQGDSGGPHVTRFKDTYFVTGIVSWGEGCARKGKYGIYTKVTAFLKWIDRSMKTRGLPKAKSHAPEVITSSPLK
Sequence of FXa (P00742 41-179 partner): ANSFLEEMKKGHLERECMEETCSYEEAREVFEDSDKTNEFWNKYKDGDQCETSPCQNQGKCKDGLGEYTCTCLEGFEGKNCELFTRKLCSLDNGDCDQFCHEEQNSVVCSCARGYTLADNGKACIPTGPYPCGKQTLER
Sequence of Human Factor XIIa (P00748 373-615): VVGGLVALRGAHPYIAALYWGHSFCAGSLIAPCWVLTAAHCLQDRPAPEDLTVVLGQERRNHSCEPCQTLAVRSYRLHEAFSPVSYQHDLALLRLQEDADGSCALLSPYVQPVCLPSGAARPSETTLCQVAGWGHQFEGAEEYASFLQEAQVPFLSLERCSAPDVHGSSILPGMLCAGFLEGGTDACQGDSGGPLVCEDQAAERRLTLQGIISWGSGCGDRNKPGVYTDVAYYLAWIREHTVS

SMILES	IC50 [1] [µM]	IC50 [2] [µM]	IC50 [3] [µM]	IC50 [4] [µM]	IC50 [5] [µM]	IC50 [6] [µM]
CN1CC2C[C@@H]1C[C@H]2OCc1ccc(CNc2ccc3c(N)nccc3c2)c(F)c1 (single isomer, unassigned) [Example 2199, N6-(2-fluoro-4-((((4R*,5R*)-2-methyl-2-azabicyclo[2.2.1]heptan-5-yl)oxy)methyl)benzyl)isoquinoline-1,6-diamine]	> 20	10 to 40	3 to 10	0.01 to 0.1	3 to 10	–
CN1CCC(COc2ccc(CNc3ccc4c(N)nccc4c3)cn2)CC1 [Example 1005, N6-((6-((1-methylpiperidin-4-yl)methoxy)pyridin-3-yl)methyl)isoquinoline-1,6-diamine]	> 40	10 to 40	3 to 10	0.1 to 0.3	3 to 10	–
Nc1nccc2cc(NCc3ccc(COC4CCN(CC(F)F)CC4)cc3)ccc12 [Example 2196, 6-N-{[4-({[1-(2,2-difluoroethyl)piperidin-4-yl]oxy}methyl)phenyl]methyl}isoquinoline-1,6-diamine]	> 40	10 to 40	10 to 40	1 to 3	10 to 40	–
CN1CCC(COc2ccc(CNc3cccc4c(N)nccc34)cn2)CC1 [Example 1009, N5-((6-((1-methylpiperidin-4-yl)methoxy)pyridin-3-yl)methyl)isoquinoline-1,5-diamine]	> 40	> 40	> 40	0.1 to 0.3	3 to 10	–
CN1CCC(COc2ncc(CNc3ccc4c(N)nccc4c3)cn2)CC1 [Example 1013, 6-N-({2-[(1-methylpiperidin-4-yl)methoxy]pyrimidin-5-yl}methyl)isoquinoline-1,6-diamine]	> 20	3 to 10	3 to 10	0.1 to 0.3	3 to 10	–
CN1CCN(CCc2ccc(CNc3ccc4c(N)ncc(Cl)c4c3)c(F)c2)CC1 [Example 2184, 4-Chloro-N6-[[2-fluoro-4-[2-(4-methylpiperazin-1-yl)ethyl]phenyl]methyl]isoquinoline-1,6-diamine]	–	> 40	> 40	3 to 10	> 40	3 to 10
CN1[C@@H]2COC[C@H]1CC(OCc1ccc(CNc3cccc4c(N)nccc34)c(F)c1)C2 (stereo partly drawn) [Example 2254, N5-(2-fluoro-4-((((1R,5S)-9-methyl-3-oxa-9-azabicyclo[3.3.1]nonan-7-yl)oxy)methyl)benzyl)isoquinoline-1,5-diamine]	–	> 40	10 to 40	0.1 to 0.3	> 40	10 to 40
CN1CCC(CNc2ccc(CNc3cncc4[nH]ccc34)cn2)CC1 [Example 1213, N-((6-(((1-methylpiperidin-4-yl)methyl)amino)pyridin-3-yl)methyl)-1H-pyrrolo[2,3-c]pyridin-4-amine]	–	10 to 40	> 40	3 to 10	10 to 40	> 100
Nc1nccc2c(NCc3ccc(CCN4CCOCC4)cc3F)cccc12 [Example 2183, N5-[[2-fluoro-4-(2-morpholinoethyl)phenyl]methyl]isoquinoline-1,5-diamine]	–	> 40	> 40	0.3 to 1	> 40	10 to 40
Nc1nccc2c(NCc3ccc(N4CCn5c(nnc5C(F)(F)F)C4)nc3)cccc12 [Example 1275, N5-((6-(3-(trifluoromethyl)-5,6-dihydro-[1,2,4]triazolo[4,3-a]pyrazin-7(8H)-yl)pyridin-3-yl)methyl)isoquinoline-1,5-diamine]	–	> 40	> 40	0.3 to 1	> 40	3 to 10
CN1CCC(CNc2ccc(CNc3cncc4[nH]c(Cl)cc34)cn2)CC1 [Example 1251, 2-Chloro-N-((6-(((1-methylpiperidin-4-yl)methyl)amino)pyridin-3-yl)methyl)-1H-pyrrolo[2,3-c]pyridin-4-amine]	–	3 to 10	1 to 3	0.01 to 0.1	10 to 40	10 to 40

The remaining lines, values ahead:

IC50 [1] [µM]	IC50 [2] [µM]	IC50 [3] [µM]	IC50 [4] [µM]	IC50 [5] [µM]	IC50 [6] [µM]	SMILES
> 20	3 to 10	0.3 to 1	0.01 to 0.1	3 to 10	–	CN1CCC(COc2cc(CNc3ccc4c(N)nccc4c3)ccn2)CC1 [Example 4261, N6-((2-((1-methylpiperidin-4-yl)methoxy)pyridin-4-yl)methyl)isoquinoline-1,6-diamine]
–	1 to 3	3 to 10	1 to 3	3 to 10	0.3 to 1	Cn1ccnc1CCOc1cc(CNc2ccc3c(N)nccc3c2)ccn1 [Example 4283, 6-N-({2-[2-(1-methylimidazol-2-yl)ethoxy]pyridin-4-yl}methyl)isoquinoline-1,6-diamine]
–	> 40	> 40	0.3 to 1	10 to 40	3 to 10	CC(C)N1C[C@H]2C[C@@H]1CN2CCc1ccc(CNc2ccc3c(N)ncc(Cl)c3c2)c(F)c1 [Example 2214, 4-chloro-6-N-[(2-fluoro-4-{2-[(1R,4R)-5-isopropyl-2,5-diazabicyclo[2.2.1]heptan-2-yl]ethyl}phenyl)methyl]isoquinoline-1,6-diamine]
–	> 40	> 40	10 to 40	> 40	10 to 40	Cn1ccnc1CC(=O)NCc1ccc(CNc2cccc3c(N)nccc23)c(F)c1 [Example 2211, N-(4-(((1-aminoisoquinolin-5-yl)amino)methyl)-3-fluorobenzyl)-2-(1-methyl-1H-imidazol-2-yl)acetamide]
–	1 to 3	0.01 to 0.1	0.01 to 0.1	3 to 10	0.3 to 1	CN1CC2CCC(C1)C2COc1cc(CNc2ccc3c(N)nccc3c2)ccn1 (stereo not shown) [Example 4270, N6-((2-((3-methyl-3-azabicyclo[3.2.1]octan-8-yl)methoxy)pyridin-4-yl)methyl)isoquinoline-1,6-diamine]
–	> 40	> 40	3 to 10	10 to 40	10 to 40	CN1CC2(CC(OCc3ccc(CNc4cccc5c(N)nccc45)c(F)c3)C2)C1 [Example 2206, 5-N-[[2-fluoro-4-[(2-methyl-2-azaspiro[3.3]heptan-6-yl)oxymethyl]phenyl]methyl]isoquinoline-1,5-diamine]
–	> 40	3 to 10	0.3 to 1	> 40	3 to 10	CN1CC2CC1CC2COc1cc(CNc2cccc3c(N)nccc23)ccn1 (stereo not shown) [Example 4276, 5-N-{[2-({2-methyl-2-azabicyclo[2.2.1]heptan-5-yl}methoxy)pyridin-4-yl]methyl}isoquinoline-1,5-diamine]
–	> 40	> 40	10 to 40	> 40	10 to 40	CN1C[C@H](COc2cc(CNc3cccc4c(N)nccc34)ccn2)OC1=O [Example 4280, (5R)-5-{[(4-{[(1-aminoisoquinolin-5-yl)amino]methyl}pyridin-2-yl)oxy]methyl}-3-methyl-1,3-oxazolidin-2-one]
–	> 40	10 to 40	1 to 3	> 40	3 to 10	Cn1ccnc1CCOc1cc(CNc2cccc3c(N)nccc23)ccn1 [Example 4282, 5-N-({2-[2-(1-methylimidazol-2-yl)ethoxy]pyridin-4-yl}methyl)isoquinoline-1,5-diamine]
